Experimental data published in ChEMBL document CHEMBL3875185, “Structure-anticonvulsant activity studies in the group of (E)-N-cinnamoyl aminoalkanols derivatives monosubstituted in phenyl ring with 4-Cl, 4-CH3 or 2-CH3” (Bioorg Med Chem, 2017).
Calls of active or inactive are those of the source. The rule behind the calls is not given here.

How the values were obtained:
[1] = Displacement of [35S]dATPaS from rat cerebral cortex P2Y receptor measured after 60 mins by scintillation counting method
[2] = Displacement of [3H]TCP from rat cerebral cortex phencyclidine receptor measured after 120 mins by scintillation counting method
Mus musculus [3] = test: Anticonvulsant activity in ip dosed maximal electroshock induced seizure mouse model assessed as suppression in hindlimb tonic extension by measuring time to peak effect; type: functional
Rattus norvegicus [4] = test: Neurotoxicity in Sprague-Dawley rat assessed as behavioral change at 30 mg/kg, po measured at […] post dose; type: toxicity, organism-based; conditions: in vivo
Mus musculus [5] = test: Anticonvulsant activity in maximal electroshock induced seizure mouse model assessed as suppression in hindlimb tonic extension at 30 mg/kg, ip measured at 4 hrs post dose; type: functional, organism-based
Mus musculus [6] = test: Anticonvulsant activity in maximal electroshock induced seizure mouse model assessed as suppression in hindlimb tonic extension at 100 mg/kg, ip measured at 4 hrs post dose; type: functional, organism-based
Mus musculus [7] = test: Anticonvulsant activity in maximal electroshock induced seizure mouse model assessed as suppression in hindlimb tonic extension at 300 mg/kg, ip measured at 4 hrs post dose; type: functional, organism-based
Mus musculus [8] = test: Neurotoxicity in mouse assessed as induction of motor impairment at 30 mg/kg, ip measured at 0.5 hrs post dose by rotarod method; type: toxicity, organism-based; conditions: in vivo
Mus musculus [9] = test: Neurotoxicity in mouse assessed as induction of motor impairment at 30 mg/kg, ip measured at 4 hrs post dose by rotarod method; type: toxicity, organism-based; conditions: in vivo
Mus musculus [10] = test: Neurotoxicity in mouse assessed as induction of motor impairment at 300 mg/kg, ip measured at 4 hrs post dose by rotarod method; type: toxicity, organism-based; conditions: in vivo
Mus musculus [11] = test: Anticonvulsant activity in 6-Hz induced seizure mouse model assessed as restoration of normal activity within 10 secs from stimulation at 100 mg/kg, ip at 32 mA measured at 4 hrs post dose; type: functional, organism-based
Rattus norvegicus [12] = test: Anticonvulsant activity in maximal electroshock induced seizure Sprague-Dawley rat model assessed as suppression in hindlimb tonic extension at 30 mg/kg, po measured at 2 hrs post dose; type: functional, organism-based
Rattus norvegicus [13] = test: Neurotoxicity in Sprague-Dawley rat assessed as behavioral change at 30 mg/kg, po measured at 1 hr post dose; type: toxicity, organism-based; conditions: in vivo
Rattus norvegicus [14] = test: Neurotoxicity in Sprague-Dawley rat assessed as behavioral change at 30 mg/kg, po measured at 0.5 hrs post dose; type: toxicity, organism-based; conditions: in vivo
Rattus norvegicus [15] = test: Neurotoxicity in Sprague-Dawley rat assessed as behavioral change at 30 mg/kg, po measured at 2 hrs post dose; type: toxicity, organism-based; conditions: in vivo
Rattus norvegicus [16] = test: Neurotoxicity in Sprague-Dawley rat assessed as behavioral change at 30 mg/kg, po measured at 4 hrs post dose; type: toxicity, organism-based; conditions: in vivo
Rattus norvegicus [17] = test: Neurotoxicity in Sprague-Dawley rat assessed as behavioral change at 30 mg/kg, ip measured at […] post dose; type: toxicity, organism-based; conditions: in vivo
Rattus norvegicus [18] = test: Neurotoxicity in Sprague-Dawley rat assessed as behavioral change at 30 mg/kg, ip measured at 0.5 hrs post dose; type: toxicity, organism-based; conditions: in vivo
Rattus norvegicus [19] = test: Neurotoxicity in Sprague-Dawley rat assessed as behavioral change at 30 mg/kg, ip measured at 1 hr post dose; type: toxicity, organism-based; conditions: in vivo
Rattus norvegicus [20] = test: Neurotoxicity in Sprague-Dawley rat assessed as behavioral change at 30 mg/kg, ip measured at 2 hrs post dose; type: toxicity, organism-based; conditions: in vivo
Rattus norvegicus [21] = test: Neurotoxicity in Sprague-Dawley rat assessed as behavioral change at 30 mg/kg, ip measured at 4 hrs post dose; type: toxicity, organism-based; conditions: in vivo
Mus musculus [22] = test: Anticonvulsant activity in ip dosed pentylenetetrazole induced seizure mouse model assessed as no observable episode of clonic convulsion of at least 5 secs by measuring time to peak effect; type: functional
Mus musculus [23] = test: Neurotoxicity in ip dosed mouse assessed as induction of motor impairment by measuring time to peak effect by rotarod method; type: toxicity, organism-based; conditions: in vivo
Mus musculus [24] = test: Anticonvulsant activity in ip dosed maximal electroshock induced seizure mouse model assessed as suppression in hindlimb tonic extension; type: functional
Mus musculus [25] = test: Anticonvulsant activity in ip dosed pentylenetetrazole induced seizure mouse model assessed as no observable episode of clonic convulsion of at least 5 secs; type: functional
[26] = Neurotoxicity in ip dosed mouse; type: toxicity, organism-based; conditions: in vivo
[27] = Protection index, ratio of TD50 for neurotoxicity in ip dosed mouse to ED50 for ip dosed maximal electroshock induced seizure mouse model; type: toxicity, organism-based; conditions: in vivo, read-out: Ratio TD50/ED50
[28] = Protection index, ratio of TD50 for neurotoxicity in ip dosed mouse to ED50 for ip dosed pentylenetetrazole induced seizure mouse model; type: toxicity, organism-based; conditions: in vivo, read-out: Ratio TD50/ED50
[29] = Displacement of [35S]TBPS from rat cerebral cortex GABA-gated chloride channel measured after 60 mins by scintillation counting method
[30] = target: Vasoactive intestinal polypeptide receptor 1 (Homo sapiens, UniProt P32241); test: Displacement of [125I]VIP from human recombinant VPAC1 receptor expressed in CHO cells measured after 60 mins by scintillation counting method; type: cell-based
[31] = Displacement of [3H]batrachotoxinin from rat cerebral cortex sodium channel site 2 measured after 60 mins by scintillation counting method
Mus musculus [32] = test: Anticonvulsant activity in ip dosed 6-Hz induced seizure mouse model assessed as restoration of normal activity within 10 secs from stimulation at 44 mA; type: functional
Mus musculus [33] = test: Anticonvulsant activity in ip dosed pentylenetetrazole induced seizure mouse model; type: functional
Rattus norvegicus [34] = test: Anticonvulsant activity in po dosed pentylenetetrazole induced seizure rat model; type: functional
[35] = Displacement of [125I]Tyr11-somatostatin-14 from Sst receptor in mouse AtT-20 cells measured after 60 mins by scintillation counting method; type: cell-based; conditions: att20
[36] = Displacement of [3H]D888 from rat cerebral cortex calcium channel L type verapamil binding site measured after 120 mins by scintillation counting method
[37] = Displacement of [3H]a,b-MeATP from rat urinary bladder P2X receptor measured after 120 mins by scintillation counting method

Vasoactive intestinal polypeptide receptor 1, sequence (P32241 whole entry): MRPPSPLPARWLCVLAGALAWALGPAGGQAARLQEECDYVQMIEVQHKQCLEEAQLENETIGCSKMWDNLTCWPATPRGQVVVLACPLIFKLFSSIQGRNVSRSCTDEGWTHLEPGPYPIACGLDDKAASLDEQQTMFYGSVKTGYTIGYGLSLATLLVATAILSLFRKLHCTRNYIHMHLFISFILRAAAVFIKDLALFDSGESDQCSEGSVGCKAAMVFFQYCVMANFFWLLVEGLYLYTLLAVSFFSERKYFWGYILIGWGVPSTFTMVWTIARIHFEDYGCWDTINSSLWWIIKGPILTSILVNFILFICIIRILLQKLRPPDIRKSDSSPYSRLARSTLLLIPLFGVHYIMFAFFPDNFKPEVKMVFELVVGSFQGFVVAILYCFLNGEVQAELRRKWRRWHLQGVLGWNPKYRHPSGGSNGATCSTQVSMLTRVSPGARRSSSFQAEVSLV

With Nc1ncnc2c1ncn2[C@H]1C[C@H](O)[C@@H](COP(O)(=S)OP(=O)(O)OP(=O)(O)O)O1 (some centres not stated) as the molecule, how does the IC50 [1] read?
Its IC50 is 29 nM.

With C[C@]12N[C@H](Cc3ccccc31)c1ccccc12 [DIZOCILPINE] as the molecule, how does the IC50 [2] read?
The IC50 was 4.6 nM.

What does the source list for O=C(/C=C/c1ccc(Cl)cc1)N[C@H]1CC[C@H](O)CC1?
Time (Mus musculus [3]): 2 h; Activity (Rattus norvegicus [4]): Non-Toxic; Activity (Mus musculus [5]): Active; Activity (Mus musculus [6]): Active; Activity (Mus musculus [7]): Active; Activity (Mus musculus [8]): Non-Toxic; Activity (Mus musculus [9]): Non-Toxic; Activity (Mus musculus [10]): Non-Toxic; Activity (Mus musculus [11]): Active; Activity (Rattus norvegicus [12]): Active; Activity (Rattus norvegicus [13]): Non-Toxic; Activity (Rattus norvegicus [14]): Non-Toxic; Activity (Rattus norvegicus [15]): Non-Toxic; Activity (Rattus norvegicus [16]): Non-Toxic; Activity (Rattus norvegicus [17]): Non-Toxic; Activity (Rattus norvegicus [18]): Non-Toxic; Activity (Rattus norvegicus [19]): Non-Toxic; Activity (Rattus norvegicus [20]): Non-Toxic; Activity (Rattus norvegicus [21]): Non-Toxic; Time (Mus musculus [22]): 2 h; Time (Mus musculus [23]): 6 h; ED50 (Mus musculus [24]): 186 mg/kg; ED50 (Mus musculus [25]): 317 mg/kg; TD50 [26]: > 600 mg/kg; selectivity ratio [27]: > 3.22; selectivity ratio [28]: > 1.9

With C=C(C)[C@@H]1[C@H]2OC(=O)[C@@H]1[C@]1(O)C[C@H]3O[C@]34C(=O)O[C@H]2[C@]14C [PICROTOXININ] as the molecule, how does the IC50 [29] read?
The IC50 was 77 nM.

With H-HSDAVFTDNYTRLRKQLAVKKYLNSILN-NH2 as the molecule, how does the IC50 [30] read?
Its IC50 is 0.11 nM.

For COc1ccc(C(=O)O[C@H]2CC[C@@]3(C)[C@H]4CC[C@H]5[C@]6(O)C[C@H](O)[C@@]7(O)[C@@H](CN8C[C@@H](C)CC[C@H]8[C@@]7(C)O)[C@]6(O)C[C@@]53O[C@@]24O)cc1OC, which IC50 [31] is on record?
The IC50 was 4000 nM.

With CCCC(CCC)C(=O)O [VALPROIC ACID] as the molecule, how does the ED50 (Mus musculus [32]) read?
The ED50 was 310 mg/kg.

And the ED50 (Mus musculus [33])?
The ED50 was 220 mg/kg.

And the ED50 (Rattus norvegicus [34])?
The ED50 was 646 mg/kg.

With C[C@H](N)C(=O)NCC(=O)N[C@H]1CSSC[C@@H](C(=O)O)NC(=O)[C@H](CO)NC(=O)[C@H]([C@@H](C)O)NC(=O)[C@H](Cc2ccccc2)NC(=O)[C@H]([C@@H](C)O)NC(=O)[C@H](CCCCN)NC(=O)[C@H](Cc2c[nH]c3ccccc23)NC(=O)[C@H](Cc2ccccc2)NC(=O)[C@H](Cc2ccccc2)NC(=O)[C@H](CC(N)=O)NC(=O)[C@H](CCCCN)NC1=O [SOMATOSTATIN] as the molecule, how does the IC50 [35] read?
The IC50 was 0.074 nM.

With COc1ccc(CCN(C)CCCC(C#N)(c2cc(OC)c(OC)c(OC)c2)C(C)C)cc1OC (configuration not stated) [GALLOPAMIL] as the molecule, how does the IC50 [36] read?
The IC50 was 15 nM.

With Nc1ncnc2c1ncn2[C@@H]1O[C@H](COP(=O)(O)CP(=O)(O)OP(=O)(O)O)[C@@H](O)[C@H]1O [DIPHOSPHOMETHYLPHOSPHONIC ACID ADENOSYL ESTER] as the molecule, how does the IC50 [37] read?
Its IC50 is 1.9 nM.
